# Target: T1, LRRK2 (G2019S) (Homo sapiens, UniProt Q5S007, G2019S)
# T1 construct: Recombinant GST-LRRK2 (delta970), purified from baculovirus infected insect cells (SF9); GST (N); host or cells: baculovirus infected insect cells (SF9)
# Assay: LRRK2 inhibition, radiometric kinase assay with recombinant GST-LRRK2 (delta970) and peptide substrate
# Format: biochemical
# Conditions: GST-LRRK2 (delta970) G2019S 30 nM, ATP ~52 μM (Km), 30 min at 30° C.
# Procedure: Compounds were assessed for inhibition of LRRK2 inhibition using the following procedure.
# Recombinant GST-LRRK2 (delta970), purified from baculovirus infected insect cells (SF9), at least 90% pure and either wild-type sequence or bearing the pathogenic G2019S mutation, was combined into a kinase buffer at 30 nM concentration. Kinase buffer consists of 50 mM Tris HCl pH 7.4, 1 mM EDTA, and 50 μM peptide substrate (amino acid sequence […]). Experimental compounds or control (no compound) were added at desired concentrations in DMSO and water, where final concentration of DMSO in kinase reactions was 0.1% for all drug concentrations. Activation buffer that consists of a final concentration in the reactions of 10 mM MgCl2 and ATP (˜92 μM for WT-LRRK2 reactions and ˜52 μM for G2019S-LRRK2, which represent respective Km ATP concentrations) were added to each reaction, in addition to 0.5 μCi of gamma-32-P-dATP per reaction. Reactions were incubated at 1400 RPM at 30° C. for 30 min. and then spotted in triplicate directly onto a slot-blot apparatus fitted with phospho-cellulose paper and allowed to dry. Each slot was then washed with 10 mM phosphoric acid buffer until beta-radiation could not be detected in eluted wash buffer, usually ˜1 mL per slot. Paper within each slot were excised and radiation measured by liquid scintillation.
# T1 sequence (Q5S007 970-2527 G2019S limits assumed): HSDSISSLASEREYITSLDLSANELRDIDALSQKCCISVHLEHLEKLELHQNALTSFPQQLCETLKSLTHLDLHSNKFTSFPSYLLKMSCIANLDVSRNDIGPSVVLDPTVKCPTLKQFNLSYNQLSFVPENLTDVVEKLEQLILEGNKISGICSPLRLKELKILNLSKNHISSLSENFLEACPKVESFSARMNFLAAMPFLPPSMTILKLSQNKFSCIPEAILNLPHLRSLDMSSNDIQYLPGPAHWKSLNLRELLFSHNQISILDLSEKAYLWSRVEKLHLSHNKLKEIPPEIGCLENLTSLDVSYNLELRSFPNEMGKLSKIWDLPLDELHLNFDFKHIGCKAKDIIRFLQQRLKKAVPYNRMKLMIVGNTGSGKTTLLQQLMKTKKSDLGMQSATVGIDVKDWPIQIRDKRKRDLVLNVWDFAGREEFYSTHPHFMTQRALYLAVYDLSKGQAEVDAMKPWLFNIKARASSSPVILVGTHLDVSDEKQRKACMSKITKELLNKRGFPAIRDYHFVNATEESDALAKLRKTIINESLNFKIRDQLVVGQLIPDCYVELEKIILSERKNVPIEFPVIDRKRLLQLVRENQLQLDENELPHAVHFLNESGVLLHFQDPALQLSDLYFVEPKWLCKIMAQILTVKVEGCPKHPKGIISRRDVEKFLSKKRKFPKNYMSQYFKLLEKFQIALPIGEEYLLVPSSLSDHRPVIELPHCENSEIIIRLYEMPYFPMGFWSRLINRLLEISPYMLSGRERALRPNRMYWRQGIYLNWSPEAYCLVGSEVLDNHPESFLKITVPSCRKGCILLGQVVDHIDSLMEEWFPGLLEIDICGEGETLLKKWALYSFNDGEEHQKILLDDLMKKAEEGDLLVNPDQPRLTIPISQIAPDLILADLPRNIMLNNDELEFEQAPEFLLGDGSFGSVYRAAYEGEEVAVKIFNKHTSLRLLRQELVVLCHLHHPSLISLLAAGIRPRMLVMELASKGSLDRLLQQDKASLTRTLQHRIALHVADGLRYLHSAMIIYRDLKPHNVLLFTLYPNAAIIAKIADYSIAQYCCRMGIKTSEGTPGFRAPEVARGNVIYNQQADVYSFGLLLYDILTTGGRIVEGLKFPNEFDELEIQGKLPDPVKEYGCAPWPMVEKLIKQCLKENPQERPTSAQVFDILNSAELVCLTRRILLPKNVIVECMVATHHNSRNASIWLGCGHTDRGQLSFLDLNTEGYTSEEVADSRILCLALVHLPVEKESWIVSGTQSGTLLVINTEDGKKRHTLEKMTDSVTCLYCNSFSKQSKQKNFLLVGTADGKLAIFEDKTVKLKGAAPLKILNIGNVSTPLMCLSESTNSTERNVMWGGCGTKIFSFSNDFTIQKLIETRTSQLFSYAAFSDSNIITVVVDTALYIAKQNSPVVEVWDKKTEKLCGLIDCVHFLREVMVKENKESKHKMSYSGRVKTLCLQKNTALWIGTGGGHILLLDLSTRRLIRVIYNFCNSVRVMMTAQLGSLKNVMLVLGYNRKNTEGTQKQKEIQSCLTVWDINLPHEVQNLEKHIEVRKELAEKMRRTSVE
row,SMILES,IC50 [nM]
1,"CCC(Sc1ccc2nnc(-c3cccc(OC)c3)n2n1)C(=O)N1CCCCC1 (stereo not drawn) [Example 73, 2-((3-(3-methoxyphenyl)-[1,2,4]triazolo[4,3-b]pyridazin-6-yl)thio)-1-(piperidin-1-yl)butan-1-one]",100 to 1000
2,"CCOC(=O)C(CC)Oc1ccc2nnc(-c3cccs3)n2n1 (stereo not drawn) [Example 82, ethyl 2-((3-(thiophen-2-yl)-[1,2,4]triazolo[4,3-b]pyridazin-6-yl)oxy)butanoate]",≥ 5000
3,"CCC(Sc1ccc2nnc(-c3ccsc3)n2n1)C(=O)N1CCCCC1 (stereo not drawn) [Example 64, 1-(piperidin-1-yl)-2-((3-(thiophen-3-yl)-[1,2,4]triazolo[4,3-b]pyridazin-6-yl)thio)butan-1-one]",100 to 1000
4,"CCOC(=O)C(CC)Sc1ccc2nnc(-c3ccc(F)c(F)c3)n2n1 (stereo not drawn) [Example 76, ethyl 2-((3-(3,4-difluorophenyl)-[1,2,4]triazolo[4,3-b]pyridazin-6-yl)thio)butanoate]",1000 to 5000
5,"CCC(Sc1ccc2nnc(-c3nccs3)n2n1)C(=O)O (stereo not drawn) [Example 33, 2-((3-(thiazol-2-yl)-[1,2,4]triazolo[4,3-b]pyridazin-6-yl)thio)butanoic acid]",100 to 1000
6,"Cc1ccc(-c2nnc3ccc(SCC(=O)N4CCCCC4)nn23)s1 [Example 57, 2-((3-(5-methylthiophen-2-yl)-[1,2,4]triazolo[4,3-b]pyridazin-6-yl)thio)-1-(piperidin-1-yl)ethanone]",1000 to 5000
7,"CCC(Nc1ccc2nnc(-c3cccs3)n2n1)C(=O)OC (stereo not drawn) [Example 98, methyl 2-((3-(thiophen-2-yl)-[1,2,4]triazolo[4,3-b]pyridazin-6-yl)amino)butanoate]",≥ 5000
8,"CC(Sc1ccc2nnc(-c3cscn3)n2n1)C(=O)N1CCCC1 (stereo not drawn) [Example 111, 1-(pyrrolidin-1-yl)-2-((3-(thiazol-4-yl)-[1,2,4]triazolo[4,3-b]pyridazin-6-yl)thio)propan-1-one]",100 to 1000
9,"CCOC(=O)C1CCCN(C(=O)C(CC)Sc2ccc3nnc(-c4cccs4)n3n2)C1 (stereo not drawn) [Example 103, ethyl 1-(2-((3-(thiophen-2-yl)-[1,2,4]triazolo[4,3-b]pyridazin-6-yl)thio)butanoyl)piperidine-3-carboxylate]",1000 to 5000
10,"CCOC(=O)C(CC)Sc1ccc2nnc(-c3cccc(OC)c3)n2n1 (stereo not drawn) [Example 71, ethyl 2-((3-(3-methoxyphenyl)-[1,2,4]triazolo[4,3-b]pyridazin-6-yl)thio)butanoate]",1000 to 5000
11,"CCC(Sc1ccc2nnc(-c3cccc(F)c3)n2n1)C(=O)N1CCCCC1 (stereo not drawn) [Example 97, 2-((3-(3-fluorophenyl)-[1,2,4]triazolo[4,3-b]pyridazin-6-yl)thio)-1-(piperidin-1-yl)butan-1-one]",100 to 1000
12,"CCOC(=O)C(CC)Sc1ccc2nnc(-c3ccc(C(F)(F)F)cc3)n2n1 (stereo not drawn) [Example 77, ethyl 2-((3-(4-(trifluoromethyl)phenyl)-[1,2,4]triazolo[4,3-b]pyridazin-6-yl)thio)butanoate]",≥ 5000
13,"CCC(Sc1ccc2nnc(-c3ccccc3OC)n2n1)C(=O)N1CCCCC1 (stereo not drawn) [Example 70, 2-((3-(2-methoxyphenyl)-[1,2,4]triazolo[4,3-b]pyridazin-6-yl)thio)-1-(piperidin-1-yl)butan-1-one]",≥ 5000
14,"Cc1ccc(-c2nnc3ccc(SCC(=O)O)nn23)cc1 [Example 13, 2-((3-(p-tolyl)-[1,2,4]triazolo[4,3-b]pyridazin-6-yl)thio)acetic acid]",1000 to 5000
15,"CCC(Oc1ccc2nnc(-c3cccs3)n2n1)C(=O)O (stereo not drawn) [Example 83, 2-((3-(thiophen-2-yl)-[1,2,4]triazolo[4,3-b]pyridazin-6-yl)oxy)butanoic acid]",≥ 5000
16,"CCc1ccc(-c2cnc3ccc(SC(CC)C(=O)O)nn23)s1 (stereo not drawn) [Example 88, 2-((3-(5-ethylthiophen-2-yl)imidazo[1,2-b]pyridazin-6-yl)thio)butanoic acid]",1000 to 5000
17,"CCCC(Sc1ccc2nnc(-c3cccs3)n2n1)C(=O)N1CCCCC1 (stereo not drawn) [Example 93, 1-(piperidin-1-yl)-2-((3-(thiophen-2-yl)-[1,2,4]triazolo[4,3-b]pyridazin-6-yl)thio)pentan-1-one]",100 to 1000
18,"CC(Sc1ccc2nnc(-c3ncccn3)n2n1)C(=O)N1CCCCC1 (stereo not drawn) [Example 109, 1-(piperidin-1-yl)-2-((3-(pyrimidin-2-yl)-[1,2,4]triazolo[4,3-b]pyridazin-6-yl)thio)propan-1-one]",100 to 1000
19,"NC(=O)CS(=O)(=O)c1ccc2nnc(-c3cccs3)n2n1 [Example 91, 2-((3-(thiophen-2-yl)-[1,2,4]triazolo[4,3-b]pyridazin-6-yl)sulfonyl)acetamide]",1000 to 5000
20,"CCC(Sc1ccc2nnc(-c3ccc(F)cc3)n2n1)C(=O)N1CCCC1 (stereo not drawn) [Example 8, 2-((3-(4-fluorophenyl)-[1,2,4]triazolo[4,3-b]pyridazin-6-yl)thio)-1-(pyrrolidin-1-yl)butan-1-one]",100 to 1000

row,SMILES,IC50 [nM]
1,"CCC(Oc1ccc2nnc(-c3cccs3)n2n1)C(N)=O (stereo not drawn) [Example 84, 2-((3-(thiophen-2-yl)-[1,2,4]triazolo[4,3-b]pyridazin-6-yl)oxy)butanamide]",≥ 5000
2,"O=C(O)CSc1ccc2nnc(-c3cccs3)n2n1 [Example 27, 2-((3-(thiophen-2-yl)-[1,2,4]triazolo[4,3-b]pyridazin-6-yl)thio)acetic acid]",≥ 5000
3,"O=C(CSc1ccc2nnc(-c3cccs3)n2n1)N1CCOCC1 [Example 24, 1-morpholino-2-((3-(thiophen-2-yl)-[1,2,4]triazolo[4,3-b]pyridazin-6-yl)thio)ethanone]",100 to 1000
4,"NC(=O)CSc1ccc2nnc(-c3cccs3)n2n1 [Example 3, 2-((3-(thiophen-2-yl)-[1,2,4]triazolo[4,3-b]pyridazin-6-yl)thio)acetamide]",100 to 1000
5,"CCC(Sc1ccc2nnc(-c3cccc(F)c3)n2n1)C(N)=O (stereo not drawn) [Example 81, 2-((3-(3-fluorophenyl)-[1,2,4]triazolo[4,3-b]pyridazin-6-yl)thio)butanamide]",100 to 1000
6,"CCC(Sc1ccc2nnc(-c3ccccc3)n2n1)C(=O)N1CCCCC1 (stereo not drawn) [Example 106, 2-((3-phenyl-[1,2,4]triazolo[4,3-b]pyridazin-6-yl)thio)-1-(piperidin-1-yl)butan-1-one]",100 to 1000
7,"CCC(Sc1ccc2nnc(-c3ccc(Cl)s3)n2n1)C(=O)O (stereo not drawn) [Example 61, 2-((3-(5-chlorothiophen-2-yl)-[1,2,4]triazolo[4,3-b]pyridazin-6-yl)thio)butanoic acid]",≥ 5000
8,"CCC(Sc1ccc2nnc(-c3ccc(F)cc3)n2n1)C(=O)O (stereo not drawn) [Example 6, 2-((3-(4-fluorophenyl)-[1,2,4]triazolo[4,3-b]pyridazin-6-yl)thio)butanoic acid]",100 to 1000
9,"CCc1ccc(-c2nnc3ccc(SC(CC)C(=O)N4CCCCC4)nn23)s1 (stereo not drawn) [Example 87, 2-((3-(5-ethylthiophen-2-yl)-[1,2,4]triazolo[4,3-b]pyridazin-6-yl)thio)-1-(piperidin-1-yl)butan-1-one]",100 to 1000
10,"CCC(Oc1ccc2nnc(-c3cccs3)n2n1)C(=O)N1CCCCC1 (stereo not drawn) [Example 85, 1-(piperidin-1-yl)-2-((3-(thiophen-2-yl)-[1,2,4]triazolo[4,3-b]pyridazin-6-yl)oxy)butan-1-one]",≥ 5000
11,"O=C(CSc1ccc2nnc(-c3cccs3)n2n1)N1CCCCC1 [Example 11, 1-(piperidin-1-yl)-2-((3-(thiophen-2-yl)-[1,2,4]triazolo[4,3-b]pyridazin-6-yl)thio)ethanone]",100 to 1000
12,"O=C(CSc1ccc2nnc(-c3cccs3)n2n1)Nc1nccs1 [Example 23, N-(thiazol-2-yl)-2-((3-(thiophen-2-yl)-[1,2,4]triazolo[4,3-b]pyridazin-6-yl)thio)acetamide]",100 to 1000
13,"O=C(O)CSc1ccc2nnc(-c3nccs3)n2n1 [Example 42, 2-((3-(thiazol-2-yl)-[1,2,4]triazolo[4,3-b]pyridazin-6-yl)thio)acetic acid]",≥ 5000
14,"CCC(Sc1ccc2nnc(-c3ccc(F)c(F)c3)n2n1)C(N)=O (stereo not drawn) [Example 79, 2-((3-(3,4-difluorophenyl)-[1,2,4]triazolo[4,3-b]pyridazin-6-yl)thio)butanamide]",1000 to 5000
15,"CCOC(=O)CSc1ccc2nnc(-c3ccncc3)n2n1 [Example 2, ethyl 2-((3-(pyridin-4-yl)-[1,2,4]triazolo[4,3-b]pyridazin-6-yl)thio)acetate]",≥ 5000
16,"NC(=O)CSc1ccc2nnc(-c3csc4ccccc34)n2n1 [Example 35, 2-((3-(benzo[b]thiophen-3-yl)-[1,2,4]triazolo[4,3-b]pyridazin-6-yl)thio)acetamide]",1000 to 5000
17,"CCOC(=O)C(CC)Sc1ccc2nnc(-c3cccc(F)c3)n2n1 (stereo not drawn) [Example 75, ethyl 2-((3-(3-fluorophenyl)-[1,2,4]triazolo[4,3-b]pyridazin-6-yl)thio)butanoate]",1000 to 5000
18,"CC(Sc1ccc2nnc(-c3nccs3)n2n1)C(=O)N1CCCCC1 (stereo not drawn) [Example 125, 1-(piperidin-1-yl)-2-((3-(thiazol-2-yl)-[1,2,4]triazolo[4,3-b]pyridazin-6-yl)thio)propan-1-one]",100 to 1000
19,"CCC(Sc1ccc2nnc(-c3ccc(Cl)s3)n2n1)C(=O)N1CCCCC1 (stereo not drawn) [Example 62, 2-((3-(5-chlorothiophen-2-yl)-[1,2,4]triazolo[4,3-b]pyridazin-6-yl)thio)-1-(piperidin-1-yl)butan-1-one]",100 to 1000
